Measured values published in US8012956B2, “Tropane compounds” (Exelixis, Inc., priority 2007, dated 2011).

biological target: HSP90 (Homo sapiens, UniProt P07900); experiment: HSP90 inhibition (HSP90 IC50); format: biochemical

Row | IC50 | SMILES
1 | 500 to 999 nM | COc1cccc(C(=O)N[C@H]2C[C@H]3CC[C@@H](C2)N3c2ccc(C(=O)NCc3c(F)ccc(F)c3F)cn2)c1C [6-[3-endo-({[2-methyl-3-(methyloxy)phenyl]carbonyl}amino)-8-azabicyclo[3.2.1]oct-8-yl]-N-[(2,3,6-trifluorophenyl)methyl]pyridine-3-carboxamide]
2 | < 500 nM | Cc1cc(C(N)=O)c(N)cc1C(=O)N[C@H]1C[C@H]2CC[C@@H](C1)N2c1ccc(C(=O)C2CC2)cn1 [5-amino-N-{8-[5-(cyclopropylcarbonyl)pyridin-2-yl]-8-azabicyclo[3.2.1]oct-3-endo-yl}-2-methylbenzene-1,4-dicarboxamide]
3 | < 500 nM | CCC(CC)Nc1cc(C(=O)N[C@H]2C[C@H]3CC[C@@H](C2)N3c2ccc(C(=O)CCN3CCCCC3)cn2)ccc1C(N)=O [2-[(1-ethylpropyl)amino]-N4-{8-[5-(3-piperidin-1-ylpropanoyl)pyridin-2-yl]-8-azabicyclo[3.2.1]oct-3-endo-yl}benzene-1,4-dicarboxamide]
4 | < 500 nM | COc1cccc(C(=O)NC2CC3CCC(C2)N3c2ccc(C(=O)NCC3CCNC3)cn2)c1C (stereo not shown)
5 | < 500 nM | COc1cccc([C@H](C)NC(=O)c2ccc(N3C4CCC3CC(NC(=O)c3cccc(OC)c3C)C4)nc2)c1 (stereo partly drawn) [6-[3-endo-({[2-methyl-3-(methyloxy)phenyl]carbonyl}amino)-8-azabicyclo[3.2.1]oct-8-yl]-N-{(1S)-1-[3-(methyloxy)phenyl]ethyl}pyridine-3-carboxamide]
6 | < 500 nM | CCc1cc(C(=O)N[C@H]2C[C@H]3CC[C@@H](C2)N3c2ccc(C(=O)C3CC3)cn2)c(C)cc1C(N)=O [N-{8-[5-(cyclopropylcarbonyl)pyridin-2-yl]-8-azabicyclo[3.2.1]oct-3-endo-yl}-5-ethyl-2-methylbenzene-1,4-dicarboxamide]
7 | 2000 to 10000 nM | COc1cccc(C(=O)NC2CC3CCC(C2)N3c2ccc(C(=O)N[C@H](C)c3ccccc3)cn2)c1C (stereo partly drawn) [6-[3-endo-({[2-methyl-3-(methyloxy)phenyl]carbonyl}amino)-8-azabicyclo[3.2.1]oct-8-yl]-N-[(1R)-1-phenylethyl]pyridine-3-carboxamide]
8 | 500 to 999 nM | COc1cccc(C(=O)N[C@H]2C[C@H]3CC[C@@H](C2)N3c2ccc(C(=O)NC3CCN(C)CC3)cn2)c1C [6-[3-endo-({[2-methyl-3-(methyloxy)phenyl]carbonyl}amino)-8-azabicyclo[3.2.1]oct-8-yl]-N-(1-methylpiperidin-4-yl)pyridine-3-carboxamide]
9 | < 500 nM | Cc1cc(C(=O)N[C@H]2C[C@H]3CC[C@@H](C2)N3c2ccc(C(=O)N[C@@H]3CCN(C(C)C)C3)cn2)c(C)cc1C(N)=O [2,5-dimethyl-N-{8-[5-({[(3R)-1-(1-methylethyl)pyrrolidin-3-yl]amino}carbonyl)pyridin-2-yl]-8-azabicyclo[3.2.1]oct-3-endo-yl}benzene-1,4-dicarboxamide]
10 | 500 to 999 nM | CCCOCCCNC(=O)c1ccc(N2[C@@H]3CC[C@H]2C[C@@H](NC(=O)c2cccc(OC)c2C)C3)nc1 [6-[3-endo-({[2-methyl-3-(methyloxy)phenyl]carbonyl}amino)-8-azabicyclo[3.2.1]oct-8-yl]-N-[3-endo-(propyloxy)propyl]pyridine-3-carboxamide]
11 | 1000 to 2000 nM | COc1cccc(C(=O)N[C@H]2C[C@H]3CC[C@@H](C2)N3c2ccc(C(=O)NCc3cccc(F)c3)cn2)c1C [N-[(3-fluorophenyl)methyl]-6-[3-endo-({[2-methyl-3-(methyloxy)phenyl]carbonyl}amino)-8-azabicyclo[3.2.1]oct-8-yl]pyridine-3-carboxamide]
12 | 2000 to 10000 nM | COc1cccc(C(=O)N[C@H]2C[C@H]3CC[C@@H](C2)N3c2ccc(C(N)=O)cn2)c1F [6-[3-endo-({[2-fluoro-3-(methyloxy)phenyl]carbonyl}amino)-8-azabicyclo[3.2.1]oct-8-yl]pyridine-3-carboxamide]
13 | 1000 to 2000 nM | COc1ccc([C@H](NC(=O)c2ccc(N3C4CCC3CC(NC(=O)c3cccc(OC)c3C)C4)nc2)C(=O)O)cc1 (stereo partly drawn) [(2S)-[({6-[3-endo-({[2-methyl-3-(methyloxy)phenyl]carbonyl}amino)-8-azabicyclo[3.2.1]oct-8-yl]pyridin-3-yl}carbonyl)amino][4-(methyloxy)phenyl]ethanoic acid]
14 | < 500 nM | CC(C)[C@H](C)Nc1cc(C(=O)NC2CC3CCC(C2)N3c2ccc(C(=O)C3CC3)cn2)ccc1C(N)=O (stereo partly drawn) [N4-{8-[5-(cyclopropylcarbonyl)pyridin-2-yl]-8-azabicyclo[3.2.1]oct-3-endo-yl}-2-{[(1S)-1,2-dimethylpropyl]amino}benzene-1,4-dicarboxamide]
15 | < 500 nM | NC(=O)c1cc(Br)c(C(=O)N[C@H]2C[C@H]3CC[C@@H](C2)N3c2ccc(C(=O)C3CC3)cn2)cc1NC1CCCC1 [2-bromo-5-(cyclopentylamino)-N-{8-[5-(cyclopropylcarbonyl)pyridin-2-yl]-8-azabicyclo[3.2.1]oct-3-endo-yl}benzene-1,4-dicarboxamide]
16 | < 500 nM | C[C@H](NC(=O)c1ccc(N2C3CCC2CC(NC(=O)c2ccc(C(N)=O)c(NCCS(C)(=O)=O)c2)C3)nc1)c1ccc(N2CCN(C)CC2)cc1 (stereo partly drawn) [N4-(8-{5-[({(1S)-1-[4-(4-methylpiperazin-1-yl)phenyl]ethyl}amino)carbonyl]pyridin-2-yl}-8-azabicyclo[3.2.1]oct-3-endo-yl)-2-{[2-(methylsulfonyl)ethyl]amino}benzene-1,4-dicarboxamide]

Second part, the molecule before the results:

Row | SMILES | IC50
17 | CC(=O)c1ccc(N2[C@@H]3CC[C@H]2C[C@@H](NC(=O)c2ccc(C(N)=O)c(NCC(C)(C)C)c2)C3)nc1 [N4-[8-(5-acetylpyridin-2-y)-8-azabicyclo[3.2.1]oct-3-endo-yl]-2-[(2,2-dimethylpropyl)amino]benzene-1,4-dicarboxamide] | < 500 nM
18 | NC(=O)c1ccc(C(=O)NC2CC3CCC(C2)N3c2ccc(C(=O)C3CC3)cn2)cc1N[C@H]1CC[C@H](N2CCCCC2)CC1 (stereo partly drawn) [N4-{8-[5-(cyclopropylcarbonyl)pyridin-2-yl]-8-azabicyclo[3.2.1]oct-3-endo-yl}-2-[(trans-4-piperidin-1-ylcyclohexyl)amino]benzene-1,4-dicarboxamide] | < 500 nM
19 | CCNc1c(C)c(C(=O)NC2CC3CCC(C2)N3c2ccc(C(=O)N[C@@H](C)c3ccc(N4CCN(C)CC4)cc3)cn2)cc(C)c1C(N)=O (stereo partly drawn) [3-(ethylamino)-2,5-dimethyl-N1-(8-{5-[({(1S)-1-[4-(4-methylpiperazin-1-yl)phenyl]ethyl}amino)carbonyl]pyridin-2-yl}-8-azabicyclo[3.2.1]oct-3-endo-yl)benzene-1,4-dicarboxamide] | 2000 to 10000 nM
20 | O=C(NCc1ccccc1)c1ccc(N2[C@@H]3CC[C@H]2C[C@@H](NC(=O)c2ccc(CO)cc2)C3)nc1 [6-[3-endo-({[4-(hydroxymethyl)phenyl]carbonyl}amino)-8-azabicyclo[3.2.1]oct-8-yl]-N-(phenylmethyl)pyridine-3-carboxamide] | < 500 nM
21 | CN1CCC(CCC(=O)c2ccc(N3[C@@H]4CC[C@H]3C[C@@H](NC(=O)c3ccc(C(N)=O)c(NCC5CC5)c3)C4)nc2)CC1 [2-[(cyclopropylmethyl)amino]-N4-(8-{5-[3-(1-methylpiperidin-4-yl)propanoyl]pyridin-2-yl}-8-azabicyclo[3.2.1]oct-3-endo-yl)benzene-1,4-dicarboxamide] | < 500 nM
22 | COc1ccc(CNC(=O)c2ccc(N3[C@@H]4CC[C@H]3C[C@@H](NC(=O)c3cccc(OC)c3C)C4)nc2)cc1F [N-{[3-fluoro-4-(methyloxy)phenyl]methyl}-6-[3-endo-({[2-methyl-3-(methyloxy)phenyl]carbonyl}amino)-8-azabicyclo[3.2.1]oct-8-yl]pyridine-3-carboxamide] | < 500 nM
23 | CCN1CCC[C@H](NC(=O)c2ccc(N3C4CCC3CC(NC(=O)c3cc(C)c(C(N)=O)cc3C)C4)nc2)C1 (stereo partly drawn) [N-{8-[5-({[(3S)-1-ethylpiperidin-3-yl]amino}carbonyl)pyridin-2-yl]-8-azabicyclo[3.2.1]oct-3-endo-yl}-2 5-dimethylbenzene-1,4-dicarboxamide] | 500 to 999 nM
24 | CC[C@H](C)Nc1cc(C(=O)NC2CC3CCC(C2)N3c2ccc(C(C)=O)cn2)ccc1C(N)=O (stereo partly drawn) [N4-[8-(5-acetylpyridin-2-yl)-8-azabicyclo[3.2.1]oct-3-endo-yl]-2-{[(1S)-1-methylpropyl]amino}benzene-1,4-dicarboxamide] | < 500 nM
25 | COc1cccc(C(=O)N[C@H]2C[C@H]3CC[C@@H](C2)N3c2ccc(C(N)=O)cn2)c1CCCCO [6-[3-endo-({[2-(4-hydroxybutyl)-3-(methyloxy)phenyl]carbonyl}amino)-8-azabicyclo[3.2.1]oct-8-yl]pyridine-3-carboxamide] | 500 to 999 nM
26 | NC(=O)c1ccc(C(=O)N[C@H]2C[C@H]3CC[C@@H](C2)N3c2ccc(C(=O)NCc3ccccc3)cn2)cc1 [N-[8-(5-{[(phenylmethyl)amino]carbonyl}pyridin-2-yl)-8-azabicyclo[3.2.1]oct-3-endo-yl]benzene-1,4-dicarboxamide] | < 500 nM
27 | COc1ccc(Nc2cc(C(=O)N[C@H]3C[C@H]4CC[C@@H](C3)N4c3ccc(C(=O)NC4CCCC4)cn3)ccc2C(N)=O)cc1OCCN(C)C | < 500 nM
28 | COc1cccc(C(=O)N[C@H]2C[C@H]3CC[C@@H](C2)N3c2ccc(C(=O)NCc3cccc(N4CCN(C)CC4)c3)cn2)c1C [6-[3-endo-({[2-methyl-3-(methyloxy)phenyl]carbony}amino)-8-azabicyclo[3.2.1]oct-8-yl]-N-{[3-(4-methylpiperazin-1-yl)phenyl]methyl}pyridine-3-carboxamide] | < 500 nM
29 | COc1cccc(C(=O)N[C@H]2C[C@H]3CC[C@@H](C2)N3c2ccc(C(=O)NC3CC3)cn2)c1C [N-cyclopropyl-6-[3-endo-({[2-methyl-3-(methyloxy)phenyl]carbonyl}amino)-8-azabicyclo[3.2.1]oct-8-yl]pyridine-3-carboxamide] | 1000 to 2000 nM
30 | COc1cccc(C(=O)N[C@H]2C[C@H]3CC[C@@H](C2)N3c2ccc(C(=O)NCc3ccc(F)c(F)c3)cn2)c1C [N-[(3,4-difluorophenyl)methyl]-6-[3-endo-({(2-methyl-3-(methyloxy)phenyl]carbonyl}amino)-8-azablcyclo[3.2.1]oct-8-yl]pyridine-3-carboxamide] | < 500 nM
31 | COc1cccc(C(=O)N[C@H]2C[C@H]3CC[C@@H](C2)N3c2ccc(C(=O)NCC(C)C)cn2)c1C [6-[3-endo-({[2-methyl-3-(methyloxy)phenyl]carbonyl}amino)-8-azabicyclo[3.2.1]oct-8-yl]-N-(2-methylpropyl)pyridine-3-carboxamide] | 1000 to 2000 nM
